# Experimental data from patent publication US8466089B2, “Pyrazole compounds, process for their production and herbicides containing them” (Ishihara Sangyo Kaisha, Ltd., priority 2008, dated 2013).
# Assays:
# Assay type in all cases: in vivo
# corn (Zea mays L.) = test: Test Example 5, foliar treatment versus Reference Compounds; settings: 4.0 to 4.3 leaf stage, 7th day after application, read-out: Growth inhibition rate (%) (7th day after application) Corn
# Description: (§1) Upland field soil was put into a 1/1,000,000 hectare pot, and seeds of various plants were sown. When the respective plants reached predetermined leaf stage ((1) velvetleaf (Abutilon theophrasti MEDIC.): 3.0 to 3.5 leaf stage, (2) giant foxtail (Setaria faberi Herrm.): 4.0 to 4.5 leaf stage, (3) green foxtail (Setaria viridis L.): 5.0 to 5.5 leaf stage, and (4) corn (Zea mays L.): 4.0 to 4.3 leaf stage, a wettable powder of compound No. 2-1 of the above-mentioned present invention, a wettable powder of the above-mentioned Reference Compound 1 and a wettable powder of the above-mentioned Reference Compound 2, prepared in accordance with a conventional preparation method, were weighed so that the active ingredients became the prescribed amounts, and diluted with water in an amount corresponding to 300 liter per 1 hectare (containing 0.5 vol % of an agricultural spreader (Destiny HC: WINFIELD SOLUTIONS by LLC). The spray solutions thus prepared were applied for foliar treatment by a small sprayer.
# (§2) On the 7th to 20th day after application, the state of growth of the respective plants was visually observed, and the herbicidal effect was evaluated by a growth inhibition rate (%) of 0 (equivalent to the non-treated area) to 100% (complete kill).
# [1] = system: velvetleaf (Abutilon theophrasti MEDIC.); test: as above; settings: 3.0 to 3.5 leaf stage, 20th day after application, read-out: Growth inhibition rate (%) (20th day after application) Velvet leaf
# Description: as §1, §2
# [2] = system: giant foxtail (Setaria faberi Herrm.); test: as above; settings: 4.0 to 4.5 leaf stage, 20th day after application, read-out: Growth inhibition rate (%) (20th day after application) Giant foxtail
# Description: as §1, §2
# [3] = system: green foxtail (Setaria viridis L.); test: as above; settings: 5.0 to 5.5 leaf stage, 18th day after application, read-out: Growth inhibition rate (%) (18th day after application) Green foxtail
# Description: as §1, §2
# [4] = system: Japanese ribbon waparo (Sagittaria pygmaea); test: Test Example 3, paddy field pot, application to irrigated water; settings: applied at primary leaf stage, 13th to 17th day after application, read-out: Growth inhibition rate (%) Japanese ribbon waparo
# Method in brief: (§3)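 Weeds were sown or planted in flooded paddy-soil pots and treated in the water at 0.5-leaf or primary-leaf stage. Rice (Nihonbare), transplanted at two-leaf stage 3 cm deep, was treated on day 4. Diluted wettable powder or emulsifiable concentrate was used, and growth inhibition (0–100%) was scored visually at 13–17 days for weeds and 20–23 days for rice.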
# [5] = system: barnyardgrass (Echinochloa oryzicola vasing.); test: as above; settings: applied at 0.5 leaf stage, 13th to 17th day after application, read-out: Growth inhibition rate (%) barnyard grass
# Method in brief: as §3
# [6] = system: Japanese bulrush (Scirpus juncoides); test: as above; settings: Schoenoplectiella juncoides, applied at 0.5 leaf stage, 13th to 17th day after application, read-out: Growth inhibition rate (%) Japanese bulrush
# Method in brief: as §3
# [7] = system: velvetleaf (Abutilon theophrasti MEDIC.); test: Test Example 1, foliar treatment in upland pots; settings: 20th to 22nd day after application, visual, read-out: Growth inhibition rate (%) Velvetleaf
# [8] = system: prickly sida (Sida spinosa L.); test: Test Example 1, foliar treatment in upland pots; settings: 20th to 22nd day after application, visual, read-out: Growth inhibition rate (%) Prickly sida
# wheat (Triticum spp.) = test: Test Example 1, foliar treatment in upland pots; settings: 20th to 22nd day after application, visual, read-out: Growth inhibition rate (%) Wheat
# [9] = system: green foxtail (Setaria viridis L.); test: Test Example 1, foliar treatment in upland pots; settings: 20th to 22nd day after application, visual, read-out: Growth inhibition rate (%) Green foxtail
# Method in brief: (§4)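 Visual growth inhibition, 0% = untreated to 100% = complete kill, read on day 20–22 post-spray. Post-emergence foliar application of formulated compound in 500 L/ha water plus 0.1 vol% spreader; leaf stages: corn 2.0–3.3, rice 1.2–2.5, foxtail 1.5–3.0, soybean primary leaf–0.3.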
# [10] = system: soybean (Glycine max Merr.); test: Test Example 1, foliar treatment in upland pots; settings: 20th to 22nd day after application, visual, read-out: Growth inhibition rate (%) Soybean
# Method in brief: as §4
# rice (Oryza sativa L.) = test: Test Example 1, foliar treatment in upland pots; settings: 20th to 22nd day after application, visual, read-out: Growth inhibition rate (%) Rice
# Method in brief: as §4
smiles,measurement,setting,value
"CCn1ncc(C(=O)c2ccc(S(C)(=O)=O)c(OCCOC)c2C)c1OC(C)OC(=O)OC (stereo not shown) [Compound No. 2-1, 1-(1-Ethyl-4-(3-(2-methoxyethoxy)-2-methyl-4-(methylsulfonyl)benzoyl)-1H-pyrazol-5-yloxy)ethyl methyl carbonate]",inhibition at 90 g/ha,corn (Zea mays L.),0%
same,inhibition at 3.5 g/ha,[1],80%
same,inhibition at 3.5 g/ha,[2],83%
same,inhibition at 7 g/ha,[3],70%
same,inhibition at 63 g/ha,[4],80%
same,inhibition at 63 g/ha,[5],100%
same,inhibition at 63 g/ha,[6],80%
same,inhibition at 7 g/ha,[7],100%
same,inhibition at 7 g/ha,[8],60%
same,inhibition at 7 g/ha,wheat (Triticum spp.),0%
same,inhibition at 7 g/ha,[9],100%
same,inhibition at 7 g/ha,[10],95%
same,inhibition at 7 g/ha,rice (Oryza sativa L.),70%
